Source: patent US20250163061A1 (Bala Therapeutics, Inc., priority 2021, published 2025)

Tests used:
Type in all cases: cell-based
[1] = tested on: MV4-11; assay: MV4-11 cellular growth inhibition assay (CellTiter-Glo); conditions: Homo sapiens, 168 h, MV4-11 cells, 7 days of incubation
Description: (§1) HEK293 (Institute of Cytology Russian Academy of Science), MV4-11 (ATCC, CRL-9591), MOLM-13 (AcceGen, ABC-TC517S) were seeded at a density of 500 cells per well (HEK293) and 2000 cells per well (MV4-11, MOLM-13) in a 384-well clear bottom plate (Greiner Cat #781090) in 45 μl total volume of DMEM (PanEco, Cat #C420, Russia) or RPMI (PanEco, Cat #C330, Russia) with 10% FBS (HyClone Cat #SV30160.03). HEK293 were allowed to adhere overnight at 37° C., 5% CO2. 500× compounds solutions in DMSO (Sigma Cat #D2650) were prepared into Cmpnds plate (Diamond Well Plate, Axigen, Cat #P-384-120SQ-C-S) and DMSO only control was included. 1 μl of 500× compounds (Cmpnds plate) was added to 49 μl of culture medium into Dilution plate (Diamond Well Plate, Axigen, Cat #P-384-120SQ-C-S), mixed and then 5 μl of 10× compounds solutions were transferred to cells followed by centrifugation at 100 g for 1 min. Final DMSO concentration was 0.2%. After 3 days of incubation, 10 μl of 1× compounds were added to cells. After 7 days of incubation, 12 μl of CellTiter-Glo (Promega, CAT #G7572) were added to the cells, plate was centrifuged at 100 g for 1 min and luminescence signal was measured using Microplate Reader (CLARIOStar).

[2] = tested on: MOLM-13; assay: MOLM-13 cellular growth inhibition assay (CellTiter-Glo); conditions: Homo sapiens, 168 h, MOLM-13 cells, 7 days of incubation
Description: as §1

[3] = HEK293 cellular growth inhibition assay (CellTiter-Glo); conditions: human, HEK293 cells, 7 days of incubation
Description: as §1

Structure (SMILES)	CC50 [1] [nM]	CC50 [2] [nM]	CC50 at 7 days [3] [µM]
CNC(=O)NC12CC(Cn3c(C#N)cc4c(C)c(CN5CCC6(CC5)CN(c5ncnc7ccc(CC(F)(F)F)cc57)C6)ccc43)(C1)C2 [Compound 60, 1-[3-[[2-Cyano-4-methyl-5-[[2-[6-(2,2,2-trifluoroethyl)quinazolin-4-yl]-2,7-diazaspiro[3.5]nonan-7-yl]methyl]indol-1-yl]methyl]-1-bicyclo[1.1.1]pentanyl]-3-methyl-urea]	≤ 100	≤ 100	2 to 5
C=CC(=O)N1CCN(CCCn2c(C#N)cc3c(C)c(CN4CCC5(CC4)CN(c4ncnc6ccc(CC(F)(F)F)cc46)C5)ccc32)CC1 [Compound 66, 4-methyl-1-[3-(4-prop-2-enoylpiperazin-1-yl)propyl]-5-[[2-[6-(2,2,2-trifluoroethyl)quinazolin-4-yl]-2,7-diazaspiro[3.5]nonan-7-yl]methyl]indole-2-carbonitrile]	100 to 500	100 to 500	2 to 5
Cc1c(CN2CCC3(CC2)CN(c2ncnc4ccc(CC(F)(F)F)cc24)C3)ccc2c1cc(C#N)n2CC1CNC(=O)NC1 [Compound 4, 4-Methyl-1-[(2-oxohexahydropyrimidin-5-yl)methyl]-5-[[2-[6-(2,2,2-trifluoroethyl)quinazolin-4-yl]-2,7-diazaspiro[3.5]nonan-7-yl]methyl]indole-2-carbonitrile]	100 to 500	500 to 1000	–
CS(=O)(=O)N1CCN(CCn2c(C#N)cc3cc(CN4CCC5(CC4)CN(c4ncnc6ccc(CC(F)(F)F)cc46)C5)ccc32)CC1 [Compound 91, 1-{2-[4-(Methylsulfonyl)piperazin-1-yl]ethyl}-5-({2-[6-(2,2,2-trifluoroethyl)quinazolin-4-yl]-2,7-diazaspiro[3.5]non-7-yl}methyl)-1H-indole-2-carbonitrile]	500 to 1000	1000 to 5000	5 to 10
Cc1c(CN2CCC3(CC2)CN(c2nncc4ccc(CC(F)(F)F)cc24)C3)ccc2c1cc(C#N)n2CC(C)N1CCN(S(C)(=O)=O)CC1 (centres unmarked) [Compound 79, 4-Methyl-1-[2-(4-methylsulfonylpiperazin-1-yl)propyl]-5-[[2-[7-(2,2,2-trifluoroethyl)phthalazin-1-yl]-2,7-diazaspiro[3.5]nonan-7-yl]methyl]indole-2-carbonitrile]	500 to 1000	1000 to 5000	5 to 10
C=CC(=O)N1CCN(C(C)Cn2c(C#N)cc3c(C)c(CN4CCC5(CC4)CN(c4ncnc6ccc(CC(F)(F)F)cc46)C5)ccc32)CC1 (centres unmarked) [Compound 63, 1-[2-(4-Acryloylpiperazin-1-yl)propyl]-4-methyl-5-({2-[6-(2,2,2-trifluoroethyl)quinazolin-4-yl]-2,7-diazaspiro[3.5]non-7-yl}methyl)-1H-indole-2-carbonitrile]	100 to 500	100 to 500	2 to 5
Cc1c(CN2CCC3(CC2)CN(c2ncnc4ccc(CC(F)(F)F)cc24)C3)ccc2c1cc(C#N)n2CC12CC(NS(N)(=O)=O)(C1)C2 [Compound 61, 4-[7-[[2-cyano-4-methyl-1-[[3-(sulfamoylamino)-1-bicyclo[1.1.1]pentanyl]methyl]indol-5-yl]methyl]-2,7-diazaspiro[3.5]nonan-2-yl]-6-(2,2,2-trifluoroethyl)quinazoline]	≤ 100	100 to 500	5 to 10
Cc1c(CN2CCC3(CC2)CN(c2ncnc4ccc(CC(F)(F)F)cc24)C3)ccc2c1cc(C#N)n2CCN1CCOCC1 [Compound 97, 4-Methyl-1-(2-morpholin-4-ylethyl)-5-({2-[6-(2,2,2-trifluoroethyl)quinazolin-4-yl]-2,7-diazaspiro[3.5]non-7-yl}methyl)-1H-indole-2-carbonitrile]	500 to 1000	1000 to 5000	2 to 5
Cc1c(CN2CCC3(CC2)CN(c2ncnc4ccc(CC(F)(F)F)cc24)C3)ccc2c1cc(C#N)n2CCCCN1CCN(S(C)(=O)=O)CC1 [Compound 44, 4-Methyl-1-{4-[4-(methylsulfonyl)piperazin-1-yl]butyl}-5-({2-[6-(2,2,2-trifluoroethyl)quinazolin-4-yl]-2,7-diazaspiro[3.5]non-7-yl}methyl)-1H-indole-2-carbonitrile]	1000 to 5000	> 5000	2 to 5
Cc1c(CN2CCC3(CC2)CN(c2ncnc4ccc(CC(F)(F)F)cc24)C3)ccc2c1cc(C#N)n2CC1CCNC(=O)CC1 (centres unmarked) [Compound 5, 4-Methyl-1-[(7-oxoazepan-4-yl)methyl]-5-[[2-[6-(2,2,2-trifluoroethyl)quinazolin-4-yl]-2,7-diazaspiro[3.5]nonan-7-yl]methyl]indole-2-carbonitrile]	100 to 500	500 to 1000	≤ 2
Cc1c(CN2CCC3(CC2)CN(c2ncnc4ccc(CC(F)(F)F)cc24)C3)ccc2c1cc(C#N)n2C(C)CCN1CCN(S(C)(=O)=O)CC1 (centres unmarked) [Compound 13, 4-Methyl-1-{1-methyl-3-[4-(methylsulfonyl)piperazin-1-yl]propyl}-5-({2-[6-(2,2,2-trifluoroethyl)quinazolin-4-yl]-2,7-diazaspiro[3.5]non-7-yl}methyl)-1H-indole-2-carbonitrile]	≤ 100	500 to 1000	5 to 10
Cc1c(CN2CCC3(CC2)CN(c2ncnc4ncc(CC(F)(F)F)nc24)C3)ccc2c1cc(C#N)n2CC(C)N1CCN(S(C)(=O)=O)CC1 (centres unmarked) [Compound 42, 4-Methyl-1-[2-(4-methylsulfonylpiperazin-1-yl)propyl]-5-[[2-[6-(2,2,2-trifluoroethyl)pteridin-4-yl]-2,7-diazaspiro[3.5]nonan-7-yl]methyl]indole-2-carbonitrile]	100 to 500	100 to 500	≤ 2
Cc1c(CN2CCC3(CC2)CN(c2ncnc4ccc(CC(F)(F)F)cc24)C3)ccc2c1cc(C#N)n2C[C@H]1CC[C@H](NS(C)(=O)=O)CC1 [Compound 40, N-(trans-4-{[2-Cyano-4-methyl-5-({2-[6-(2,2,2-trifluoroethyl)quinazolin-4-yl]-2,7-diazaspiro[3.5]non-7-yl}methyl)-1H-indol-1-yl]methyl}cyclohexyl)methanesulfonamide]	100 to 500	1000 to 5000	10 to 20
Cc1c(CN2CCC3(CC2)CN(c2ncnc4cnc(CC(F)(F)F)cc24)C3)ccc2c1cc(C#N)n2CC(C)N1CCN(S(C)(=O)=O)CC1 (centres unmarked) [Compound 45, 4-Methyl-1-{2-[4-(methylsulfonyl)piperazin-1-yl]propyl}-5-({2-[6-(2,2,2-trifluoroethyl)pyrido[3,4-d]pyrimidin-4-yl]-2,7-diazaspiro[3.5]non-7-yl}methyl)-1H-indole-2-carbonitrile]	100 to 500	1000 to 5000	5 to 10
Cc1c(CN2CCC3(CC2)CN(c2ncnc4ccc(CC(F)(F)F)c(F)c24)C3)ccc2c1cc(C#N)n2CC1CNC(=O)CO1 (centres unmarked) [Compound 12, 5-[[2-[5-Fluoro-6-(2,2,2-trifluoroethyl)quinazolin-4-yl]-2,7-diazaspiro[3.5]nonan-7-yl]methyl]-4-methyl-1-[(5-oxomorpholin-2-yl)methyl]indole-2-carbonitrile]	100 to 500	500 to 1000	≤ 2
Cc1c(CN2CCC3(CC2)CN(c2ncnc4ccc(CC(F)(F)F)cc24)C3)ccc2c1cc(C#N)n2CC1CNC(=O)C1 (centres unmarked) [Compound 51, 4-Methyl-1-[(5-oxopyrrolidin-3-yl)methyl]-5-({2-[6-(2,2,2-trifluoroethyl)quinazolin-4-yl]-2,7-diazaspiro[3.5]non-7-yl}methyl)-1H-indole-2-carbonitrile]	100 to 500	1000 to 5000	2 to 5
Cc1c(CN2CCC3(CC2)CN(c2ncnc4ccc(CC(F)(F)F)cc24)C3)ccc2c1cc(C#N)n2CC12CC(NC=O)(C1)C2 [Compound 95, (3-{[2-Cyano-4-methyl-5-({2-[6-(2,2,2-trifluoroethyl)quinazolin-4-yl]-2,7-diazaspiro[3.5]non-7-yl}methyl)-1H-indol-1-yl]methyl}bicyclo[1.1.1]pent-1-yl)formamide]	≤ 100	100 to 500	2 to 5
Cc1c(CN2CCC3(CC2)CN(c2ncnc4ccc(CC(F)(F)F)cc24)C3)ccc2c1cc(C#N)n2CC1CCNC(=O)CO1 (centres unmarked) [Compound 2, 4-Methyl-1-[(3-oxo-1,4-oxazepan-7-yl)methyl]-5-[[2-[6-(2,2,2-trifluoroethyl)quinazolin-4-yl]-2,7-diazaspiro[3.5]nonan-7-yl]methyl]indole-2-carbonitrile]	100 to 500	1000 to 5000	2 to 5
Cc1c(CN2CCC3(CC2)CN(c2ncnc4ccc(CC(F)(F)F)cc24)C3)ccc2c1cc(C#N)n2C[C@@H](C)N1CCN(S(C)(=O)=O)[C@@H](C)C1 [Compound 27, 4-methyl-1-[(2R)-2-[(3S)-3-methyl-4-methylsulfonyl-piperazin-1-yl]propyl]-5-[[2-[6-(2,2,2-trifluoroethyl)quinazolin-4-yl]-2,7-diazaspiro[3.5]nonan-7-yl]methyl]indole-2-carbonitrile]	≤ 100	100 to 500	5 to 10
